The target of the assay is T1, Mtb topoisomerase I (MtbTopI) (Mycobacterium tuberculosis, UniProt P9WG49).
T1 construct: gene topA
Type of assay: biochemical.

Among the data in PMC6386362, “Mechanism and resistance for antimycobacterial activity of a fluoroquinophenoxazine compound” (PLoS ONE, 2019) are IC50 values, retold here.

In general, IC50 refers to the concentration that gives 50% inhibition.

T1 sequence (P9WG49 whole entry): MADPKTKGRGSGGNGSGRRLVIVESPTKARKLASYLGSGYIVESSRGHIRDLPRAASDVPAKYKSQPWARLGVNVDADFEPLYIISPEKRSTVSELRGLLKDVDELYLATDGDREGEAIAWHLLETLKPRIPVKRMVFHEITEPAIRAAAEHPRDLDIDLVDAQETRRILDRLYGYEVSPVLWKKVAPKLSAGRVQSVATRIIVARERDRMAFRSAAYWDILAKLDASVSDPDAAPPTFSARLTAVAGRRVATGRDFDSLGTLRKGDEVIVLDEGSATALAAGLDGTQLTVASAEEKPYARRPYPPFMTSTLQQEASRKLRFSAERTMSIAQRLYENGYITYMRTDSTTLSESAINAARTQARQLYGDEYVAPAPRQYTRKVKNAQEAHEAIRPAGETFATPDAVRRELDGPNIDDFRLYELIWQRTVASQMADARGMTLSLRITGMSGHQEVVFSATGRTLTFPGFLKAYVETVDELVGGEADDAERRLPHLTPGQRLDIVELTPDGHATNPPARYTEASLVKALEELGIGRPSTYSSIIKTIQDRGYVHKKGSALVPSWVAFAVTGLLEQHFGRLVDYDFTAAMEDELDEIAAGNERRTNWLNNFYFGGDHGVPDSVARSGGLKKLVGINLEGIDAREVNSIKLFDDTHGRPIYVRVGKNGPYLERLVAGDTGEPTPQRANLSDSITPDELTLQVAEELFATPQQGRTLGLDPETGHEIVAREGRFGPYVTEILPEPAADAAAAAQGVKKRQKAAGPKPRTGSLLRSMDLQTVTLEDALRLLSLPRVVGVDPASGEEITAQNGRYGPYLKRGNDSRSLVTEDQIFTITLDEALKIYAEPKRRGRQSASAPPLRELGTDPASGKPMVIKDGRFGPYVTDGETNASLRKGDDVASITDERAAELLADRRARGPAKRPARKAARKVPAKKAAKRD

Take `Nc1ccc2c(c1)Oc1c(N3CCC(N4CCCCC4)CC3)c(F)cc3c(=O)c(C(=O)O)cn-2c13` [FP-11g]: the IC50 is 0.24 ± 0.04 µM.
